Experimental data: the supplement of paper PMC10307832

How the values were obtained:
Assay in all cases: relative viability (nuclei count vs DMSO), 5 days (fraction); higher = more cells survive
[1] = compound: Cc1ccc2nc(NCCN)c3ncc(C)n3c2c1 + C[C@@H](Oc1cc(-c2cnn(C3CCNCC3)c2)cnc1N)c1c(Cl)ccc(F)c1Cl [Crizotinib] (partner 1 µM)
In short: (§1)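 Cells from lung cancer lines were seeded into 1536-well plates and, one day later, dosed by pin tool. Treatments were either a single drug or a fixed dose of an anchor drug with five library-drug doses (not always all listed) in √10 steps. After 5 days, nuclei were stained in a one-step fixation (final 0.05% Triton X-100, 1% formaldehyde, 1 ug/ml Hoechst) and counted on 4× images, and relative viability is the treated-to-vehicle nuclei ratio, as the median of duplicate plates.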

[2] = compound: Cc1ccc2nc(NCCN)c3ncc(C)n3c2c1 + C[C@]1(O)C[C@@H](c2nc(-c3ccc4ccc(-c5ccccc5)nc4c3)c3c(N)nccn32)C1 [Linsitinib] (partner 1 µM)
In short: as §1

Salubrinal + Palbociclib = compound: O=C(/C=C/c1ccccc1)NC(NC(=S)Nc1cccc2cccnc12)C(Cl)(Cl)Cl [Salubrinal] + CC(=O)c1c(C)c2cnc(Nc3ccc(N4CCNCC4)cn3)nc2n(C2CCCC2)c1=O [Palbociclib] (partner 0.5 µM)
In short: as §1

Salubrinal + Decitabine = compound: O=C(/C=C/c1ccccc1)NC(NC(=S)Nc1cccc2cccnc12)C(Cl)(Cl)Cl [Salubrinal] + Nc1ncn([C@H]2C[C@H](O)[C@@H](CO)O2)c(=O)n1 [Decitabine] (partner 2 µM)
In short: as §1

Cell Line | relative viability ([1]; first compound 0.04 µM) | relative viability ([1]; first compound 0.1265 µM) | relative viability ([1]; first compound 0.4 µM) | relative viability ([1]; first compound 1.265 µM) | relative viability ([1]; first compound 4 µM) | relative viability ([2]; first compound 0.04 µM) | relative viability ([2]; first compound 0.1265 µM) | relative viability ([2]; first compound 0.4 µM) | relative viability ([2]; first compound 1.265 µM) | relative viability ([2]; first compound 4 µM) | relative viability (Salubrinal + Palbociclib; first compound 0.08 µM) | relative viability (Salubrinal + Palbociclib; first compound 0.253 µM) | relative viability (Salubrinal + Palbociclib; first compound 0.8 µM) | relative viability (Salubrinal + Palbociclib; first compound 2.53 µM) | relative viability (Salubrinal + Palbociclib; first compound 8 µM) | relative viability (Salubrinal + Decitabine; first compound 0.08 µM) | relative viability (Salubrinal + Decitabine; first compound 0.253 µM) | relative viability (Salubrinal + Decitabine; first compound 0.8 µM) | relative viability (Salubrinal + Decitabine; first compound 2.53 µM) | relative viability (Salubrinal + Decitabine; first compound 8 µM)
NCI-H2009 | 1.06 | 1.06 | 1.14 | 1.04 | 0.784 | 1.15 | 1.14 | 1.22 | 1.22 | 1.05 | 0.224 | 0.171 | 0.197 | 0.225 | 0.172 | 0.414 | 0.396 | 0.426 | 0.384 | 0.384
NCI-H2023 | 0.702 | 0.652 | 0.733 | 0.767 | 0.414 | 0.73 | 0.606 | 0.658 | 0.756 | 0.577 | 0.346 | 0.32 | 0.359 | 0.419 | 0.328 | 0.238 | 0.219 | 0.236 | 0.246 | 0.221
NCI-H2085 | 1.01 | 0.77 | 0.879 | 0.848 | 0.87 | 0.894 | 0.941 | 0.928 | 0.862 | 0.87 | 0.457 | 0.471 | 0.484 | 0.438 | 0.427 | 0.521 | 0.583 | 0.564 | 0.508 | 0.643
NCI-H2087 | 1.1 | 0.926 | 0.782 | 0.932 | 0.727 | 1.03 | 0.963 | 0.789 | 0.992 | 0.877 | 0.214 | 0.235 | 0.17 | 0.234 | 0.206 | 0.448 | 0.266 | 0.295 | 0.277 | 0.257
NCI-H2126 | 1.04 | 0.999 | 1.09 | 1 | 1.03 | 0.781 | 0.759 | 0.679 | 0.645 | 0.673 | 0.382 | 0.383 | 0.363 | 0.388 | 0.386 | 0.605 | 0.547 | 0.589 | 0.563 | 0.559
NCI-H2347 | 0.653 | 0.673 | 0.615 | 0.617 | 0.625 | 0.963 | 1 | 0.944 | 0.829 | 0.893 | 0.452 | 0.462 | 0.415 | 0.388 | 0.387 | 0.598 | 0.571 | 0.663 | 0.649 | 0.661
NCI-H2405 | 0.951 | 0.827 | 0.853 | 0.838 | 0.791 | 0.942 | 0.855 | 0.928 | 1.03 | 0.763 | 0.536 | 0.484 | 0.55 | 0.524 | 0.521 | 0.726 | 0.726 | 0.754 | 0.757 | 0.729
NCI-H3122 | 0.291 | 0.304 | 0.293 | 0.286 | 0.318 | 1 | 1.03 | 0.999 | 0.982 | 1.04 | 0.195 | 0.238 | 0.172 | 0.195 | 0.176 | 0.399 | 0.443 | 0.51 | 0.461 | 0.442
